# Experiments:
# [1] = test system: switchgrass calluses; assay: Sensitivity of switchgrass calluses to drugs: callus growth on PVC medium; format: cell-based
# Description: (§1) Skins of mature seeds of switchgrass variety “Alamo” were removed by 60% (v/v) sulfate treatment, and a fungicide for seeds was used for sterilization. […] The seeds were cultured for a few months in the dark at 28° C. Then, grown calluses were classified as independent strains for each derived seed. Strains in which a compact callus expected to have a regeneration ability was grown were selected and cultured.
# (§2) In order to develop a new screening method that is appropriate for plastid transformation, the calluses of the regeneration strains prepared in the above <1> were used to examine sensitivity of wild type plant cells to various drugs.
# [2] = test system: switchgrass calluses; assay: Sensitivity of switchgrass calluses to drugs: plant (shoot) regeneration on PVS medium; format: cell-based; details: switchgrass callus on PVS medium
# Description: as §1, §2
# [3] = test system: wild type switchgrass calluses; details: 28° C.
# Description: In the sodium nitrite screening, in order to determine a screening concentration more effectively, wild type switchgrasses were cultured under sodium nitrite conditions of different concentrations, and the sensitivity of wild type cells to sodium nitrite was examined.
# Specifically, a mass of 14 switchgrass calluses remained for each plate on PVC media and PVS media containing sodium nitrite having a concentration of 0, 0.25, 0.5, 0.6, 0.7, 0.8, 0.9, or 1.0 g/L, and three plates of each of which were prepared for each concentration condition. The PVC media were cultured in the dark at 28° C. and the PVS media were cultured under light at 28° C. for 4 weeks. After culture, the number of grown calluses was measured in the PVC media, and the number of calluses from which plants were regenerated was measured in the PVS media. The growth rate and the regeneration rate were calculated.
# [4] = test system: wild type of rice variety Nipponbare; details: MS-NK medium containing sodium nitrite 400 mg/L
# Description: PSR1 genes were introduced into plastids of rice variety Nipponbare and rice variety Koshihikari and transformants were screened using sodium nitrite. Specifically, it was performed as follows. An MS-NK medium (Nishimura et al., Nature Protocols, 2006, Vol. 1, p. 2796-2802) used as a regeneration medium contained nitrate nitrogen, originally.
# [5] = PVC media, dark, 4 weeks (FIG. 2A)
# [6] = PVS media, light, 4 weeks (FIG. 2B)
Compound,Callus growth: supression concentration [1],Shoot regeneration: supression concentration [2],further results
C[C@@H](Oc1ccc(Oc2ncc(Cl)cc2F)cc1)C(=O)O [Clodinafop],(>1.0 μM),–,–
O=C(N[C@H](CO)[C@H](O)c1ccc([N+](=O)[O-])cc1)C(Cl)Cl [Cloramphenicol],(>30 mg/L),(>15 mg/L),–
O=C(O)CNCP(=O)(O)O [Glyphosate],(>0.1 mM),(>0.1 mM),–
CCc1cc(C)cc(CC)c1-c1c(OC(=O)C(C)(C)C)n2n(c1=O)CCOCC2 [Pinoxaden],(>1.0 μM),–,–
CCCCOC(=O)C(C)Oc1ccc(Oc2ccc(C(F)(F)F)cn2)cc1 (centres unmarked) [Fluazifop-butyl],(>1.0 μM),(>0.1 μM),–
CC(Oc1ccc(Oc2ncc(C(F)(F)F)cc2Cl)cc1)C(=O)O (centres unmarked) [Haloxyfop],(>1.0 μM),–,–
CN[C@@H]1[C@@H](O)[C@@H](O[C@@H]2[C@@H](O)[C@H](O[C@H]3O[C@H]([C@@H](C)O)[C@@H](O)[C@H](O)[C@H]3N)[C@@H](N)C[C@H]2N)OC[C@]1(C)O [G418],(>25 mg/L),(>25 mg/L),–
C[n+]1ccc(-c2cc[n+](C)cc2)cc1 [Methylviologen],(>1.0 μM),(>1.0 μM),–
O=NO [Sodium nitrite],(>800 mg/L),(>800 mg/L),"Concentration at which callus growth was completely suppressed [3, 5]: ≥ 0.9 g/L; Concentration at which callus growth was sharply reduced [3, 5]: 0.7 g/L; Concentration at which plant regeneration was completely suppressed [3, 6]: 1.0 g/L; Concentration at which plant regeneration was sharply reduced [3, 6]: 0.8 g/L; Regeneration ability of wild type rice [4]: had a regeneration ability"
CCCC(=NOCC)C1=C(O)CC(C2CCCSC2)CC1=O (centres unmarked) [Cycloxydim],(>1.5 μM),(>0.1 μM),–
CN(C)[C@@H]1C(O)=C(C(N)=O)C(=O)[C@@]2(O)C(O)=C3C(=O)c4c(O)cccc4[C@@](C)(O)[C@H]3C[C@@H]12 [Tetracycline],(>40 mg/L),(>60 mg/L),–
NC[C@H]1O[C@H](O[C@H]2[C@H](O)[C@@H](O[C@H]3O[C@H](CO)[C@@H](O)[C@H](N)[C@H]3O)[C@H](N)C[C@@H]2N)[C@H](O)[C@@H](O)[C@@H]1O [Kanamycin],(>200 mg/L),(>100 mg/L),–
Bleocin,(>25 mg/L),(>10 mg/L),–
[H]/N=C(/N)N[C@H]1[C@H](O)[C@@H](O)[C@H](O[C@@H]2O[C@@H](C)[C@](O)(C=O)[C@H]2O[C@@H]2O[C@@H](CO)[C@H](O)[C@@H](O)[C@@H]2NC)[C@@H](N/C(N)=N\[H])[C@@H]1O [Streptomycin],–,(>400 mg/L),–

# Reference: patent US20180216124A1, “METHOD OF PRODUCING PLASTID TRANSFORMANTS” (HONDA MOTOR CO., LTD., priority 2015, published 2018)
